Here are results for four compounds from ChEMBL document CHEMBL1201862, “PubChem BioAssay data set” (2004).

The structures appear in SMILES notation. Calls of active or inactive are those of the source. Where only a bound is given, the exact number is not on record here.

Experiment [1] can be described thus: THP-1 cell cytotoxicity, dose response, cytotoxicity control for non-replicating M. tuberculosis project (AID 489025). The format is functional.
A short description of experiment [2]: cells. It is filed as functional.
Experiment [3] is described as follows: Vero E6 cell cytotoxicity, dose response, cytotoxicity control for non-replicating M. tuberculosis project, secondary assay (AID 492998). The format is functional, VeroE6. The note with it: Vero C1008.
Experiment [4] deals with A-375. Put plainly: MITF: Counter assay: A375 proliferation Measured in Cell-Based System Using Plate Reader - 2084-03_Inhibitor_Dose_DryPowder_Activity. [Related pubchem assays (depositor defined):AID488944]. It is filed as functional. Conditions: Homo sapiens.
Experiment [5] concerns the target T1, G-protein coupled receptor 55 (Homo sapiens, UniProt Q9Y2T6). Put plainly: GPR55 antagonist potency of analogs, SAR follow-up, imaging, U2OS, beta-arrestin-GFP, LPI agonist, set 2 (AID 2820). It is filed as functional.
For experiment [6], the target named is T2, G-protein coupled receptor 35 (Homo sapiens, UniProt Q9HC97). Kind of experiment: SAR analysis of Antagonists of the GPR35 Receptor using an Image-Based Assay - Set 3. [Related pubchem assays (depositor defined):AID2013, AID2026]. It is filed as functional.
T2 sequence (Q9HC97 whole entry): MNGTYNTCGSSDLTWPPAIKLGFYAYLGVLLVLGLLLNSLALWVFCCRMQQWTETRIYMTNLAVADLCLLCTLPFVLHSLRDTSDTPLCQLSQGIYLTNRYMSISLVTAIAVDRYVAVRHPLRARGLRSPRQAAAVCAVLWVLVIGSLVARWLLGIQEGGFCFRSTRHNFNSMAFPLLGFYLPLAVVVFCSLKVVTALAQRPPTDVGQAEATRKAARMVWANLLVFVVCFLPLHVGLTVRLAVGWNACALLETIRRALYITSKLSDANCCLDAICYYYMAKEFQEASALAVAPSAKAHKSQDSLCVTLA
Experiment [7] addresses T1, G-protein coupled receptor 55. Put plainly: GPR55 antagonists blocking LPI-driven arrestin recruitment, primary screen, imaging, U2OS, beta-arrestin-GFP, LPI agonist (AID 2013).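 Further: antagonist potency measured as reduced agonist-driven arrestin aggregation.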 It is filed as functional. In general terms: Activated receptors often draw arrestin, which recruitment assays turn into a signal.
The target in experiment [8] is T3, Cannabinoid receptor 2 (Homo sapiens, UniProt P34972). Put plainly: SAR analysis of agonists of the Cannabinoid Receptor 2 using an Image-Based Assay. [Related pubchem assays (depositor defined):AID2013, AID2026]. It is filed as functional.
T3 sequence (P34972 whole entry): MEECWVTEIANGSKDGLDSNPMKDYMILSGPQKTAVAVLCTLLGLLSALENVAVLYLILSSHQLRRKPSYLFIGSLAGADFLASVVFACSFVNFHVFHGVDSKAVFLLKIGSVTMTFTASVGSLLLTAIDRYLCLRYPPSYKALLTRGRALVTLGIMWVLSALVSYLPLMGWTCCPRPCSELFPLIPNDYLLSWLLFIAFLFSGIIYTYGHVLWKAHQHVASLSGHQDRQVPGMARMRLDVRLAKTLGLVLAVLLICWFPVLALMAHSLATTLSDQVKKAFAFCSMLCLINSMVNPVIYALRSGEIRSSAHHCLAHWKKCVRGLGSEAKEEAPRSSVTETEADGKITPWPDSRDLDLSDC
Experiment [9] deals with T4, Cannabinoid receptor 1 (Homo sapiens, UniProt P21554). Kind of experiment: SAR analysis of antagonists of the Cannabinoid Receptor 1 using an Image-Based Assay - Set 2. [Related pubchem assays (depositor defined):AID2013, AID2026]. It is filed as functional.
T4 sequence (P21554 whole entry): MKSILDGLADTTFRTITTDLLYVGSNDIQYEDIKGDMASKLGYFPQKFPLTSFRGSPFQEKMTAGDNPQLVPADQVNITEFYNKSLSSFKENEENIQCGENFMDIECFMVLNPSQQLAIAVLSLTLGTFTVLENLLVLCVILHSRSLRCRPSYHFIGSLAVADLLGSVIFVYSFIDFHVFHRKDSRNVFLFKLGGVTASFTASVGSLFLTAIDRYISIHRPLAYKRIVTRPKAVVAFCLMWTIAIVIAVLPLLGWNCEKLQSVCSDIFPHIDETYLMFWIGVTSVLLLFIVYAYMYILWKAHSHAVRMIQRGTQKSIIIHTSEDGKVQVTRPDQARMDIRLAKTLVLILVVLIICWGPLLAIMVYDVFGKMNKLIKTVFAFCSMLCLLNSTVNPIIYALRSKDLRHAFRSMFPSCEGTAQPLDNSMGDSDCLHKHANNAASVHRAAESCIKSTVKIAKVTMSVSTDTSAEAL
Experiment [10] deals with T5, Microphthalmia-associated transcription factor (Homo sapiens, UniProt O75030).
T5 sequence (O75030 whole entry): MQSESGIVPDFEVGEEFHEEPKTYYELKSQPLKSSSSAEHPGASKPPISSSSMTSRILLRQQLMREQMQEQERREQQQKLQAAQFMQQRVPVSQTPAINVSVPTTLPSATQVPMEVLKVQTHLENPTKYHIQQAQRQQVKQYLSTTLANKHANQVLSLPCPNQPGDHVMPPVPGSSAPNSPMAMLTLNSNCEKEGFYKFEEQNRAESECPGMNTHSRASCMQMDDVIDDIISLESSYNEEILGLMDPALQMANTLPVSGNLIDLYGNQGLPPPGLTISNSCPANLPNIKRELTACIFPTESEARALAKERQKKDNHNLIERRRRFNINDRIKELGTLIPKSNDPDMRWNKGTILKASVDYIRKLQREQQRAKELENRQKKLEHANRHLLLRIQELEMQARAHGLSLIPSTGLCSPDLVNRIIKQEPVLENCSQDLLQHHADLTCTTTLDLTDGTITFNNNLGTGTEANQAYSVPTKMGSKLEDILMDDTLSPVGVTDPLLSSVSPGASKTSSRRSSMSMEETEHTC
Put plainly: TRPM1 promoter luciferase signal decrease, dose response, MITF inhibitor project, cell-based, SK-MEL-5, cherry-picked, set 3 (AID 493073).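 Further: SK-MEL-5 melanoma cells with luciferase driven by the MITF target TRPM1 promoter.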 It is filed as functional.

The target in experiment [11] is T4, Cannabinoid receptor 1. Put plainly: SAR analysis of agonists of the Cannabinoid Receptor 1 using an Image-Based Assay - Set 2. [Related pubchem assays (depositor defined):AID2013, AID2026]. It is filed as functional.
Experiment [12] has as its target T2, G-protein coupled receptor 35. Kind of experiment: SAR analysis of Agonists of the GPR35 Receptor using an Image-Based Assay - Set 2. [Related pubchem assays (depositor defined):AID2013, AID2026]. It is filed as functional.
In experiment [13] the target is T3, Cannabinoid receptor 2. Put plainly: SAR analysis of antagonists of the Cannabinoid Receptor 2 using an Image-Based Assay. [Related pubchem assays (depositor defined):AID2013, AID2026]. It is filed as functional.
Experiment [14] has as its target Hepatocyte nuclear factor 4-alpha (Homo sapiens, UniProt P41235). The format is functional, cell-based.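 Further: biochemical luminescence-based dose-response counterscreen measuring inhibition of HNF4 dimerization, run alongside a screen for blockers of ABHD5–perilipin-5 interaction; split luciferase complementation of HNF4 fusion proteins in cell lysate measuring dimerization.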
The target of experiment [15] is Large T antigen (Simian virus 40, UniProt P03070). It is filed as functional, Betapolyomavirus macacae.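 Further: Confirmatory-stage PubChem screen for compounds that inhibit SV40 T antigen.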
Sequence of Large T antigen (P03070 whole entry): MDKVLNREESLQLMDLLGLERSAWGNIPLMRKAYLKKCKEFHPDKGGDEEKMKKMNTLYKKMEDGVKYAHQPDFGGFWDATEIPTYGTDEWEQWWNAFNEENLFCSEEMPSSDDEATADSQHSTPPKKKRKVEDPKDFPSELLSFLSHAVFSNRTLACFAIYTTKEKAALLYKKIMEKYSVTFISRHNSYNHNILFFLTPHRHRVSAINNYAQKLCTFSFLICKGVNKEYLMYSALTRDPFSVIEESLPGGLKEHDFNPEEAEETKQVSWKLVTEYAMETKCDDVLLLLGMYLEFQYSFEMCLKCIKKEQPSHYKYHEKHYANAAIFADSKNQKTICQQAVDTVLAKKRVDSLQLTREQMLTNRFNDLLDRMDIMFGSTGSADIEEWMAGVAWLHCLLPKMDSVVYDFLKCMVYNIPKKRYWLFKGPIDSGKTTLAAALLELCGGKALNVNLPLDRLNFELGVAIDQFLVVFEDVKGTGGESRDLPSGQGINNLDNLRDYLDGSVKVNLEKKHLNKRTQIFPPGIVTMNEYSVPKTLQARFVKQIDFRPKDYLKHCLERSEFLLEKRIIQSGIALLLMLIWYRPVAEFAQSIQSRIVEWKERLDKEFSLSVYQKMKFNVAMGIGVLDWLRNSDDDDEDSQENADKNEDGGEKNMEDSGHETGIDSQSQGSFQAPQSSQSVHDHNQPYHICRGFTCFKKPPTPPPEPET
Experiment [16] has as its target T6, Alkaline phosphatase, tissue-nonspecific isozyme (Homo sapiens, UniProt P05186).
T6 sequence (P05186 whole entry): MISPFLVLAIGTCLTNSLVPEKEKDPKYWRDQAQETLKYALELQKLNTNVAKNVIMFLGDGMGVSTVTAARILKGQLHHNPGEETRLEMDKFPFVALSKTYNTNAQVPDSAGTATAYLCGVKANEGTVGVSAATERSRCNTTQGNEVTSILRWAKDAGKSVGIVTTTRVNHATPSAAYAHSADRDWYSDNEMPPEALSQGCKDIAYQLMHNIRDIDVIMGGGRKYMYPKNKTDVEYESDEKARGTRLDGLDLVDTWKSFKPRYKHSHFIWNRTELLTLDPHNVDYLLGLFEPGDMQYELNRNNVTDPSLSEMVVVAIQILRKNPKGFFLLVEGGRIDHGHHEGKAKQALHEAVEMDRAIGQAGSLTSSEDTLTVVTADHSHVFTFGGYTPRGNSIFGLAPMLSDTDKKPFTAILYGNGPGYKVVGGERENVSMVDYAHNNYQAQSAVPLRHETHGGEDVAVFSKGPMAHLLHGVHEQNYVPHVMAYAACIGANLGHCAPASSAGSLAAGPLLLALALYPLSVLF
Kind of experiment: TNAP enzyme inhibition by screening hits, dose response, selectivity assay for mouse IAP inhibitor project, biochemical, human TNAP, uHTS hits (AID 488906). It is filed as functional.

The target of experiment [17] is Intestinal-type alkaline phosphatase (Homo sapiens, UniProt P09923). Kind of experiment: inhibition of human intestinal alkaline phosphatase – biochemical, dose response (AID 488876). It is filed as functional.
Sequence of Intestinal-type alkaline phosphatase (Homo sapiens, UniProt P09923) (P09923 whole entry): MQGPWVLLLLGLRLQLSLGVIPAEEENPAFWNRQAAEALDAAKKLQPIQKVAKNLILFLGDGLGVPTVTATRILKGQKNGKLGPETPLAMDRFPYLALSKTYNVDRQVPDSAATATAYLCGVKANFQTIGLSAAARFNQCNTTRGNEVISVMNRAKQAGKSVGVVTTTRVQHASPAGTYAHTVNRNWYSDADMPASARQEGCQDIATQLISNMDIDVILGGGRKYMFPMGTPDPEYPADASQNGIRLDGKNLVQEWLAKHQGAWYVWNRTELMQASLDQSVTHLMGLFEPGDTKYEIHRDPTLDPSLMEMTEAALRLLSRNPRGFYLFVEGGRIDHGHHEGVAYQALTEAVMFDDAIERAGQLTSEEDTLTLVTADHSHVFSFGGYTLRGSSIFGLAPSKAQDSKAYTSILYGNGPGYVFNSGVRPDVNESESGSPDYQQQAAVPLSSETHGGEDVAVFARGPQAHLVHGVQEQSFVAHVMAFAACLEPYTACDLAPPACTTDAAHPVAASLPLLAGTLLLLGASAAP
For experiment [18], the target named is T7, Zinc finger protein mex-5 (Caenorhabditis elegans, UniProt Q9XUB2).
T7 sequence (Q9XUB2 whole entry): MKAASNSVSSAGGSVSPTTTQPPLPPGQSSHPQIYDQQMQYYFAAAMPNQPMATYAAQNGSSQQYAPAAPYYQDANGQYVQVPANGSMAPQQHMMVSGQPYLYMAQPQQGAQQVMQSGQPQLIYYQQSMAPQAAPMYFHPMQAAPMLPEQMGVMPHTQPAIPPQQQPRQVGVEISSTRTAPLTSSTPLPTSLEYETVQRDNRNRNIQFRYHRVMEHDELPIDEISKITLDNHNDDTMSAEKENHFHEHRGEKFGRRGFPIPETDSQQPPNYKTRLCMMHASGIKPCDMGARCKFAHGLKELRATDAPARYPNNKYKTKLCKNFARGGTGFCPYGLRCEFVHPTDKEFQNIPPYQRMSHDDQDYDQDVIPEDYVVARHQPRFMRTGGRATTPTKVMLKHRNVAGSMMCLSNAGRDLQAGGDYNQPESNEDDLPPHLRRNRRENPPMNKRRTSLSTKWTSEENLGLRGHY
Kind of experiment: MEX-5/TCR-2 RNA interaction inhibitors, dose response, biochemical, C. elegans, fluorescence polarization (AID 1960). In general terms: In fluorescence polarisation assays a small probe gives low polarisation when free and higher when bound to something large.

Experiment [19] concerns the target T8, RNA-binding protein pos-1 (Caenorhabditis elegans, UniProt G5EF15).
T8 sequence (G5EF15 whole entry): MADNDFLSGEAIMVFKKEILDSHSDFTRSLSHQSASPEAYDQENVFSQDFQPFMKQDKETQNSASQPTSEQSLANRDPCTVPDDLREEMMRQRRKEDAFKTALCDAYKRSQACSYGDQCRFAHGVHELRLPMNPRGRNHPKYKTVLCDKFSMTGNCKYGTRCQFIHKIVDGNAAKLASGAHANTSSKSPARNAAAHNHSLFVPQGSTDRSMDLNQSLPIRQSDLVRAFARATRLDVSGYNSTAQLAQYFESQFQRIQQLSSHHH
Put plainly: inhibitors of POS-1/mex-3 RNA binding, dose response, biochemical, fluorescence polarization (AID 1964).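 Further: purified POS-1 fused to maltose binding protein made in E. coli; potency of compounds blocking POS-1 binding to fluorescent RNA.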

For experiment [20], the target named is Intestinal-type alkaline phosphatase (Mus musculus, UniProt P24822). Kind of experiment: PubChem AID 488785. It is filed as functional.
Sequence of Intestinal-type alkaline phosphatase (Mus musculus, UniProt P24822) (P24822 whole entry): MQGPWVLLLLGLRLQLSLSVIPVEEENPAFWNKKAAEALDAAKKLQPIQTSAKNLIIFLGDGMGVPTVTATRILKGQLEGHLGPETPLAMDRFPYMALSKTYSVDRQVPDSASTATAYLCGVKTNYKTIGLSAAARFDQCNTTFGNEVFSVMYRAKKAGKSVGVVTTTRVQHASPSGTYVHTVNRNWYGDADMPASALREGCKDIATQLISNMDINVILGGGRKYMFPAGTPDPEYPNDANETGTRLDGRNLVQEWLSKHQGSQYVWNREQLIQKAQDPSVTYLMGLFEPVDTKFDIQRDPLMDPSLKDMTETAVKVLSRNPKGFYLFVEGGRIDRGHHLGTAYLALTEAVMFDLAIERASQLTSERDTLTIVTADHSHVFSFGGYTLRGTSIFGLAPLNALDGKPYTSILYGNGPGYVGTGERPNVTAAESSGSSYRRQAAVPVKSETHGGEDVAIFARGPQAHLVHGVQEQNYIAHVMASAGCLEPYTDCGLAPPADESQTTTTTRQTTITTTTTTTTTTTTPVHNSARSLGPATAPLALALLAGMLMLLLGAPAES
The target of experiment [21] is T1, G-protein coupled receptor 55. Kind of experiment: SAR Analysis of Selective Antagonists of GPR55 using an Image-Based Assay - Set 4. [Related pubchem assays (depositor defined):AID2013, AID2026]. The format is functional.
Experiment [22] has as its target T4, Cannabinoid receptor 1. Put plainly: SAR analysis of agonists of the Cannabinoid Receptor 1 using an Image-Based Assay - Set 4. [Related pubchem assays (depositor defined):AID2013, AID2026]. It is filed as functional.
In experiment [23] the target is T2, G-protein coupled receptor 35. Put plainly: SAR analysis of Antagonists of the GPR35 Receptor using an Image-Based Assay - Set 6. [Related pubchem assays (depositor defined):AID2013, AID2026]. The format is functional.
In experiment [24] the target is T4, Cannabinoid receptor 1. Put plainly: SAR analysis of antagonists of the Cannabinoid Receptor 1 using an Image-Based Assay - Set 4. [Related pubchem assays (depositor defined):AID2013, AID2026]. It is filed as functional.
Experiment [25] addresses T2, G-protein coupled receptor 35. Put plainly: SAR analysis of Agonists of the GPR35 Receptor using an Image-Based Assay - Set 4. [Related pubchem assays (depositor defined):AID2013, AID2026]. The format is functional.
The target of experiment [26] is T3, Cannabinoid receptor 2. Kind of experiment: SAR analysis of antagonists of the Cannabinoid Receptor 2 using an Image-Based Assay - Set 3. [Related pubchem assays (depositor defined):AID2013, AID2026]. It is filed as functional.
Experiment [27] addresses T3, Cannabinoid receptor 2. Put plainly: SAR analysis of agonists of the Cannabinoid Receptor 2 using an Image-Based Assay - Set 3. [Related pubchem assays (depositor defined):AID2013, AID2026]. The format is functional.

T1 sequence (Q9Y2T6 whole entry): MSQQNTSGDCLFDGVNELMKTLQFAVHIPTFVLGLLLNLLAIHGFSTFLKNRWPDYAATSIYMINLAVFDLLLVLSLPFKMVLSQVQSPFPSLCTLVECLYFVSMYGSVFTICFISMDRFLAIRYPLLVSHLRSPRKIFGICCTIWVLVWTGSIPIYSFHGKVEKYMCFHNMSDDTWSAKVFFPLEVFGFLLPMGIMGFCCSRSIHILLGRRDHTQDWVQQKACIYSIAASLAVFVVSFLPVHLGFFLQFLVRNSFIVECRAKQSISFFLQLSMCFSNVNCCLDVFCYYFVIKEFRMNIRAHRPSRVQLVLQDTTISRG
Sequence of Hepatocyte nuclear factor 4-alpha (P41235 whole entry, the tested form may be a part): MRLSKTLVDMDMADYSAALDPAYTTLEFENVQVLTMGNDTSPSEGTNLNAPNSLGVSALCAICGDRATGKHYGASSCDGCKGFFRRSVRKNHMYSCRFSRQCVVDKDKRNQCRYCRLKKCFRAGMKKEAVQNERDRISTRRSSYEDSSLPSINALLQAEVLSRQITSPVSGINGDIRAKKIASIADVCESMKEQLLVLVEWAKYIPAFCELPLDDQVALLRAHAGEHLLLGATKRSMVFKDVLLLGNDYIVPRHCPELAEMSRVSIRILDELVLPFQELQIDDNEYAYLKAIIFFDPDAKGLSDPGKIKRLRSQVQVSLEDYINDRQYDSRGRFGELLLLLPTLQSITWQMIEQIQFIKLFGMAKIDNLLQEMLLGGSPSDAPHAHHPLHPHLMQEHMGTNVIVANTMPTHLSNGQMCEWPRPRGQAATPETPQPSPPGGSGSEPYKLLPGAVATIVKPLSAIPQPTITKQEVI

Broadly, the CC50 is the concentration at which the toxic effect on the cells reaches its halfway point. Usually IC50 stands for the concentration that inhibits the measured activity by half. For the compound `O=C(N/N=C\c1ccc(Cl)s1)C1COc2ccccc2O1` (configuration not stated), the CC50 in experiment [1] is 16.3 µM (active); in experiment [3], 19.4 µM (active). Besides, in [2], the IC50 is 5.63 µM (active).

For orientation: AC50 means the concentration at which the activity in the assay is half-maximal. Broadly, the EC50 is the concentration giving half of the maximal effect. On to `COc1ccc(CNCCC(c2ccc(F)cc2)c2ccc(OC)cc2)cc1` (configuration not stated), for which the AC50 in experiment [4] is 16.3 µM (active); in experiment [10], 9.89 µM (active). Further, the IC50 was 1.69 µM (active) in experiment [5]; > 32 µM (inactive) in experiment [6]; 1.78 µM (active) in [7]; 2.7 µM (active) in experiment [9]; 24.2 µM (inactive) in [13]. Besides, the EC50 is > 32 µM (inactive) in experiment [8], > 32 µM (inactive) in experiment [11] and 23.1 µM (inactive) in experiment [12].

In the case of `CN1C(=O)/C(=C/C=C/c2ccco2)C(=O)NC1=S`, the IC50 in experiment [14] was 2.56 µM (active); in experiment [15] it was 11.9 µM (active); in experiment [16], 23.5 µM (active); in experiment [17], 9.58 µM (active); in [20] it was 11.8 µM (active). Further, the figures for the EC50 in experiment [18] and in experiment [19] were 37.5 µM (active) and 33.5 µM (active), respectively.

Consider `Cc1ccc(-c2nnc(C)c3nn(-c4ccc(C)cc4)cc23)cc1`, for which the IC50 in experiment [21] is > 32 µM (inactive); in [23] it was 15.4 µM (inactive); in experiment [24], 2.59 µM (active); in [26], > 18 µM (inactive). Further, the EC50 in experiment [22], in experiment [25] and in [27] was > 32 µM (inactive) throughout.
